Usually IC50 stands for the concentration that inhibits the measured activity by half. Read a low IC50 as inhibition by little substance.

Eleven compounds from patent publication US20250136722A1, “CYTOTOXICITY TARGETING CHIMERAS” (GLAXOSMITHKLINE INTELLECTUAL PROPERTY DEVELOPMENT LIMITED, priority 2021, published 2025) can be followed below.

The test system of assay [1] is endogenous target monocytes in human PBMC. The experiment in a line: PBMC ex vivo monocyte depletion flow cytometry assay (Example 200). It is filed as cell-based. The following applies: with anti-cotinine antibody SEQ ID NO: 11/12, 18-24 hours, read-out: Ex Vivo Depletion Assay pEC50 (converted). Here is the method:
A human PBMC (peripheral blood mononuclear cells) monocyte depletion flow cytometry assay was developed to screen compounds in a 384-well plate format. This assay incorporated endogenous natural killer cells to deplete endogenous target monocytes.
To screen compounds in the human PBMC monocyte depletion flow cytometry assay, 11-point dose-response curves were made from 1 mM stocks in neat DMSO by serially diluting an ARM compound of Formula (I) four-fold into a 384-well plate row-wise. These serially diluted compounds were then stamped into a flat bottom polypropylene 384-well plate (Greiner Bio-One) at 100 nL/well. Fifty microliters of 30 μg/mL anti-cotinine antibody having a heavy chain sequence of SEQ ID NO: 11 and a light chain sequence of SEQ ID NO: 12 (rabbit variable region with human IgG1 Fc domain containing a DE mutation (S239D/1332E)) that had been diluted in assay medium (RPMI 1640 (Gibco) containing 10% fetal bovine serum (Gibco), 1% Glutamax (Gibco) and 1% sodium pyruvate (Corning) was added to the wells of the plate. The plate was centrifuged for 1 min at 500 rpm (revolutions per minute) and then shaken for 5 min at room temperature. The plate was incubated for 15 minutes at 37° C./5% CO2.
Frozen PBMC cells (HemaCare BioResearch) were thawed and centrifuged at 1,200 rpm for 4 minutes. The cells were diluted to a cell density of 2×10^6 cells/mL in assay medium. Fifty microliters of the diluted cells were added to the wells of the plate. The plate was centrifuged for 1 min at 500 rpm and incubated for 18-24 hours at 37° C./5% CO2.
After 18-24 hours incubation, 2 μL of 6.25 μg human FC block (BD Pharmingen) that was diluted in assay medium was added to the wells of the plate. The plate was centrifuged for 1 minute at 500 rpm and then incubated at room temperature for 15 minutes. Five microliters of 750 nM Helix NP NIR (Biolegend) that had been diluted in assay medium was added to the wells of the plate. Nine microliters of antibody cocktail containing 1/5 diluted fluorescein isothiocyanate (FITC) labeled anti-CD45 antibody (Beckman Coulter), PC7 labeled anti-CD14 antibody (Beckman Coulter) and phycoerythrin (PE) anti-CD4 antibody (Beckman Coulter) was then added to the wells of the plate. The plate was centrifuged for 1 min at 500 rpm and incubated for 30 minutes at 4-8° C. Samples from the plate were run on BD FACS Canto II flow cytometer and data was analyzed using FlowJo software.
ARMs compounds of Formula (I) of the invention were tested for the ability to deplete monocytes in the above assay in one or more experimental runs and the results are shown in Table 3 below. Potency of the compounds of the invention is reported as a pEC50 value. The pEC50 value is the negative log of the EC50 value, wherein the EC50 value is the half maximal effective concentration measured in molar (M). For compounds tested in more than one experimental run, the pEC50 value is reported as an average or as the individual values measured
On the technique in general: Flow cytometry measures light scatter and fluorescence of single cells or particles in a stream.

For assay [2], the target named is T1, CHOK1 cells engineered to overexpress human CCR2 (Homo sapiens, UniProt P41597).
T1 construct: expressed in transfected cells; host or cells: CHOK1 cells
The experiment in a line: Antibody dependent cellular cytotoxicity (ADCC) reporter assay (Example 199). To be noted: with anti-cotinine antibody SEQ ID NO: 11/12; CHOK1-human CCR2 target cells, Jurkat FcγRIIIa NFAT-luciferase reporter cells; 12-18 hours; read-out: ADCC Reporter Assay pEC50 (converted). It is filed as cell-based. In outline: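 Potency is reported as pEC50 from a nonlinear fit, averaged over runs, using luciferase signal divided by that of compound-free wells. The readout comes from NFAT-luciferase Jurkat cells expressing FcγRIIIa, mixed for 12–18 h with human CCR2-overexpressing CHOK1 cells, 1 pM–10 μM ARM compound and 0.01–200 μg/mL Fc-enhanced anti-cotinine IgG1.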
(In general: A reporter such as luciferase makes a cellular process visible.)

Assay [3] concerns the target Anti-cotinine antibody (SEQ ID NO: 11 / SEQ ID NO: 12, rabbit variable region with human IgG1 Fc domain). Put plainly: Binding of anti-cotinine antibody to ARM compounds by SPR, Biacore T200, 37° C. (Example 202). The following applies: pH 7.4, rabbit variable region/human IgG1 Fc antibody captured on protein A. The gist of the method:
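Run at 37° C. in 10 mM HEPES pH 7.4, 150 mM NaCl, 0.005% P20, 1% DMSO. Compound titrated from 200 nM (five 3-fold steps) over protein A-captured antibody, with 200/2000 s association/dissociation. 1:1 kinetic fit gave kon, koff, Kd and residence time (1/koff); pKd averaged where runs repeated.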

Assay [4] concerns the target human alpha1 nicotinic acetylcholine (nACh) receptor (Homo sapiens, UniProt P02708+Q07001). The experiment in a line: Nicotinic acetylcholine receptor antagonism assay, IONFlux automated patch clamp (Example 203). It is filed as cell-based. The following applies: for IC50: nAChR antagonism, ACh stimulated, patch clamp; for Emax at 100 µM: maximum percentage antagonism at maximum concentration tested 100 μM. In outline: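 Human α1 nAChR-expressing cells were preincubated with compound (top 10 μM or 100 μM), then stimulated with 10 mM ACh; peak currents were recorded by IONFlux automated patch clamp. Percent inhibition versus ACh-alone control was vehicle- and rundown-corrected, then fitted to give IC50, with maximal antagonism at the top concentration; recordings with control current <500 pA were excluded.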

Molecules are shown by their SMILES. Where “and” joins values, the source holds several entries; their conditions need not be identical. Identical values can stand only once.

human alpha1 nicotinic acetylcholine (nACh) receptor, sequence (P02708 21-457): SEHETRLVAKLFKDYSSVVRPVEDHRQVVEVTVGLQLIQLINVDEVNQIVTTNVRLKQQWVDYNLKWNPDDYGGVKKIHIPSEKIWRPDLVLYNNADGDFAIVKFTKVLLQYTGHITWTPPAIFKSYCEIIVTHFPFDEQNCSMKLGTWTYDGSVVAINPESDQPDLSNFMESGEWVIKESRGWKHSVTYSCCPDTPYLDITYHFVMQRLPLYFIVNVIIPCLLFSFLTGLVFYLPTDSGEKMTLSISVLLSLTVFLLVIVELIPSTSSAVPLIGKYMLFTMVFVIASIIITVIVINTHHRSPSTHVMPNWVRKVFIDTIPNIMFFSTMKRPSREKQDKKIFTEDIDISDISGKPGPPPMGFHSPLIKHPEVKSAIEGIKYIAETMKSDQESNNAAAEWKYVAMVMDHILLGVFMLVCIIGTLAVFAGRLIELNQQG
human alpha1 nicotinic acetylcholine (nACh) receptor, sequence (P11230 24-501 partner): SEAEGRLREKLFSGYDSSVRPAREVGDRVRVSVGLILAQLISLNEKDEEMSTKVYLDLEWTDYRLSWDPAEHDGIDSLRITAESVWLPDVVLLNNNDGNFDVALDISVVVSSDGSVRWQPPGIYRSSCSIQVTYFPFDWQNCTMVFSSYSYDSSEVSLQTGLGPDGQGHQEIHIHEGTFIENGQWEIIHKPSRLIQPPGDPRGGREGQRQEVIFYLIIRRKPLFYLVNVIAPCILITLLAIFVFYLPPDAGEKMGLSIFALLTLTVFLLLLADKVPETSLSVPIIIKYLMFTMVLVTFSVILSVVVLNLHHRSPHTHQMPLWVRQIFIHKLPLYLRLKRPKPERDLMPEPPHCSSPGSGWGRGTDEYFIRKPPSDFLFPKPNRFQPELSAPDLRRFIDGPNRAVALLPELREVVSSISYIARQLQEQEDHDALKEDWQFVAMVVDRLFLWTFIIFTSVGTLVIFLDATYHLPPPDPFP
human alpha1 nicotinic acetylcholine (nACh) receptor, sequence (Q07001 22-517): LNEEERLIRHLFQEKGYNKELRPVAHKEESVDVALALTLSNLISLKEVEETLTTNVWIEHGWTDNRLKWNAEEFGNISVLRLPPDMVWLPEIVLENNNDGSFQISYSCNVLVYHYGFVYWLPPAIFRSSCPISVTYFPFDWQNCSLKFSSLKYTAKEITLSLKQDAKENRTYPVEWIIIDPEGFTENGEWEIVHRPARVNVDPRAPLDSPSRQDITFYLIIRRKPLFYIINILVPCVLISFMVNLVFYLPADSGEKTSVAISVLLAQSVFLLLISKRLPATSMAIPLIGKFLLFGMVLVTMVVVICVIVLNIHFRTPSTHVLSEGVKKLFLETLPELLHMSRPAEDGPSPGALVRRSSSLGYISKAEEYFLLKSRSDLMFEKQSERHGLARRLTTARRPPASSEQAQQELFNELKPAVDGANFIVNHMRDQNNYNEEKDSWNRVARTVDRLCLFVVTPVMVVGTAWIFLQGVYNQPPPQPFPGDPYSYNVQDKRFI

Turning to `CC(C)N(CCOCCOCCC(=O)N[C@H]1CC[C@@H](C(=O)N[C@@H]2C[C@H](N(C)C(C)C)CC[C@@H]2N2CC[C@H](Nc3ncnc4ccc(C(F)(F)F)cc34)C2=O)CC1)C(=O)CCNC(=O)[C@H]1CC(=O)N(C)[C@@H]1c1ccccc1` [Example 178], in assay [1], the EC50 is 0.398 nM.

Consider `CC(C)N(C)[C@@H]1CCC(N2CC[C@H](Nc3ncnc4ccc(C(F)(F)F)cc34)C2=O)[C@H](NC(=O)CCOCCOCCOCCOCCNC(=O)[C@H]2CC(=O)N(C)[C@@H]2c2cccnc2)C1` (some centres unmarked) [Example 39], for which the EC50 in assay [1] is 2510 nM.

`CC(C)N(C)[C@@H]1CC[C@H](N2CC[C@H](Nc3ncnc4ccc(C(F)(F)F)cc34)C2=O)[C@H](NC(=O)C2CCC(N3CCC(S(=O)(=O)NCCCCCCNC(=O)[C@H]4CC(=O)N(C)[C@@H]4c4cccnc4)CC3)CC2)C1` (single isomer, unassigned) [compound 149]: the EC50 in assay [1] is 0.251 nM.

Regarding `CC(C)N(C)C1CCC(N2CC[C@H](Nc3ncnc4ccc(C(F)(F)F)cc34)C2=O)[C@H](N[C@H]2CC[C@@H](C(=O)NCCOCCOCCOCCOCCNC(=O)[C@H]3CC(=O)N(C)[C@@H]3c3cccnc3)CC2)C1` (some centres unmarked) [Example 67], the EC50 in assay [1] was 3.98 nM.

As to `CC(C)N(C)[C@@H]1CC[C@H](N2CC[C@H](Nc3ncnc4ccc(C(F)(F)F)cc34)C2=O)[C@H](NC(=O)[C@H]2CC[C@H](NC(=O)CCCOC[C@H]3CC[C@@H](COCCNC(=O)[C@H]4CC(=O)N(C)[C@@H]4c4cccnc4)CC3)CC2)C1` [Example 57, (2S,3S)-N-(2-(((1S,4R)-4-((4-(((1R,4R)-4-(((1R,2S,5R)-5-(Isopropyl(methyl)amino)-2-((S)-2-oxo-3-((6-(trifluoromethyl)quinazolin-4-yl)amino)pyrrolidin-1-yl)cyclohexyl)carbamoyl)cyclohexyl)amino)-4-oxobutoxy)methyl)cyclohexyl)methoxy)ethyl)-1-methyl-5-oxo-2-(pyridin-3-yl)pyrrolidine-3-carboxamide], in assay [2], the EC50 was 1.61 nM and 1.48 nM and 5.07 nM. In addition, in assay [3], the “pKd of Antibody for ARM Compound of Formula (I)” value (“pKd of Antibody” for short) turned out to be 9.685. Besides, the Emax at 30 µM in assay [4] (maximum percentage antagonism at maximum concentration tested 30 μM, read-out: Maximum Response (%)) is 47.6%. In assay [4], the IC50 is more than 30000 nM.

`CC(C)N(C)[C@@H]1CC[C@H](N2CC[C@H](Nc3ncnc4ccc(C(F)(F)F)cc34)C2=O)[C@H](NC(=O)[C@H]2CC[C@H](NC(=O)CCOC[C@H]3CC[C@H](COCCNC(=O)[C@H]4CC(=O)N(C)[C@@H]4c4cccnc4)CC3)CC2)C1` [Example 53, (2S,3S)-N-(2-(((1R,4S)-4-((3-(((1R,4R)-4-(((1R,2S,5R)-5-(Isopropyl(methyl)amino)-2-((S)-2-oxo-3-((6-(trifluoromethyl)quinazolin-4-yl)amino)pyrrolidin-1-yl)cyclohexyl)carbamoyl)cyclohexyl)amino)-3-oxopropoxy)methyl)cyclohexyl)methoxy)ethyl)-1-methyl-5-oxo-2-(pyridin-3-yl)pyrrolidine-3-carboxamide]: the EC50 in assay [2] is 7.6 nM. Moreover, in assay [3], the “pKd of Antibody” value is recorded as 9.531. The Emax at 11.11 µM in assay [4] (maximum percentage antagonism at maximum concentration tested 11.11 μM, read-out: Maximum Response (%)) was 10%. Moreover, the IC50 in assay [4] was more than 11100 nM.

With `CCN1C(=O)C[C@H](C(=O)NCCOCCOCCOCCC(=O)N[C@H]2CC[C@@H](C(=O)N[C@@H]3C[C@H](N(C)C(C)C)CC[C@@H]3N3CC[C@H](Nc4ncnc5ccc(C(F)(F)F)cc45)C3=O)CC2)[C@H]1c1cccnc1` [Example 34], the EC50 in assay [2] is 1 nM. Further, the “pKd of Antibody” value in assay [3] was 9.933. For the same compound, the Emax at 100 µM in assay [4] (read-out: Maximum Response (%)) came to 79.2%. This compound also had an IC50 in assay [4] of 28500 nM.

As for `CC(C)N(C)[C@@H]1CC[C@H](N2CC[C@H](Nc3ncnc4ccc(C(F)(F)F)cc34)C2=O)[C@H](NC(=O)[C@H]2CC[C@@H](NC(=O)CCOCCOCCNC(=O)CCNC(=O)[C@H]3CC(=O)N(C)[C@@H]3c3cccnc3)CC2)C1` [Example 16, (2S,3S)-N-(3-((2-(2-(3-(((1S,4s)-4-(((1R,2S,5R)-5-(Isopropyl(methyl)amino)-2-((S)-2-oxo-3-((6-(trifluoromethyl)quinazolin-4-yl)amino)pyrrolidin-1-yl)cyclohexyl)carbamoyl)cyclohexyl)amino)-3-oxopropoxy)ethoxy)ethyl)amino)-3-oxopropyl)-1-methyl-5-oxo-2-(pyridin-3-yl)pyrrolidine-3-carboxamide], in assay [2], the EC50 was 0.925 nM and 0.119 nM. For the same compound, in assay [3], the “pKd of Antibody” value is reported as 9.287. In addition, the Emax at 100 µM in assay [4] (read-out: Maximum Response (%)) turned out to be 47.8%. Moreover, the IC50 in assay [4] was more than 100000 nM.

Take `CC(C)N(C)[C@@H]1CC[C@H](N2CC[C@H](Nc3ncnc4ccc(C(F)(F)F)cc34)C2=O)[C@H](NC(=O)[C@H]2C[C@@H](NC(=O)CCOCCOCCNC(=O)CCNC(=O)[C@H]3CC(=O)N(C)[C@@H]3c3cccnc3)C2)C1` [Example 49, (2S,3S)-N-(3-((2-(2-(3-(((1S,3s)-3-(((1R,2S,5R)-5-(Isopropyl(methyl)amino)-2-((S)-2-oxo-3-((6-(trifluoromethyl)quinazolin-4-yl)amino)pyrrolidin-1-yl)cyclohexyl)carbamoyl)cyclobutyl)amino)-3-oxopropoxy)ethoxy)ethyl)amino)-3-oxopropyl)-1-methyl-5-oxo-2-(pyridin-3-yl)pyrrolidine-3-carboxamide]: in assay [2], the EC50 was 0.845 nM and 0.303 nM. In addition, in assay [3], the “pKd of Antibody” value stood at 9.191. Also, the Emax at 100 µM in assay [4] (read-out: Maximum Response (%)) was determined as 56.7%. Half-maximal inhibition in assay [4] (IC50) was put at 80300 nM.

Turning to `CC(C)N(C)[C@@H]1CC[C@H](N2CC[C@H](Nc3ncnc4ccc(C(F)(F)F)cc34)C2=O)[C@H](NC(=O)[C@H]2CC[C@@H](C3CCN(C(=O)CCOCCOCCNC(=O)[C@H]4CC(=O)N(C)[C@@H]4c4cccnc4)CC3)CC2)C1` [Example 72, (2S,3S)-N-(2-(2-(3-(4-((1S,4s)-4-(((1R,2S,5R)-5-(isopropyl(methyl)amino)-2-((S)-2-oxo-3-((6-(trifluoromethyl)quinazolin-4-yl)amino)pyrrolidin-1-yl)cyclohexyl)carbamoyl)cyclohexyl)piperidin-1-yl)-3-oxopropoxy)ethoxy)ethyl)-1-methyl-5-oxo-2-(pyridin-3-yl)pyrrolidine-3-carboxamide], the EC50 in assay [2] is 7.94 nM. For the same compound, the “pKd of Antibody” value in assay [3] stood at 9.8865. Besides, in assay [4] (maximum percentage antagonism at maximum concentration tested 10 μM, read-out: Maximum Response (%)), the Emax at 10 µM worked out at 32.7%. In addition, the IC50 in assay [4] is more than 10000 nM.

Turning to `CC(C)N(C)[C@@H]1CC[C@H](N2CC[C@H](Nc3ncnc4ccc(C(F)(F)F)cc34)C2=O)[C@H](NC(=O)[C@H]2CC[C@H](NC(=O)CCCC(=O)NCCCOCCCNC(=O)[C@H]3CC(=O)N(C)[C@@H]3c3cccnc3)CC2)C1` [Example 19], the EC50 in assay [2] was 4.9 nM. In addition, in assay [3], the “pKd of Antibody” value is on record as 9.19. The Emax at 100 µM in assay [4] (read-out: Maximum Response (%)) came to 34.2%. The compound further registered an IC50 in assay [4] of more than 100000 nM.
